Reference: publication PMC4170518 (Biochemistry, 2013)

How the values were obtained:
[1] = target: T1, class II fructose 1,6-bisphosphate aldolase (MtFBA) (Mycobacterium tuberculosis, UniProt P9WQA3); test: biochemical
[2] = target: T1, class II fructose 1,6-bisphosphate aldolase (MtFBA); test: biochemical; assay type: binding

T1 sequence (P9WQA3 whole entry): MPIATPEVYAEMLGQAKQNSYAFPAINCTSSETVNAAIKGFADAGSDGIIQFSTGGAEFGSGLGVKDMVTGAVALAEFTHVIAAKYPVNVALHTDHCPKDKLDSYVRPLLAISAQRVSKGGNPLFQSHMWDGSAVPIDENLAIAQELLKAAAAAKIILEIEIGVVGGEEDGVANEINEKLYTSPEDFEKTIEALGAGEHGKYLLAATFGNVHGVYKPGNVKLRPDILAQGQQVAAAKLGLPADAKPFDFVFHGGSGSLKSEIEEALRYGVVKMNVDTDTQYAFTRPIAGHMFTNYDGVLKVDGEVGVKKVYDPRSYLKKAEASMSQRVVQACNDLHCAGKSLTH

SMILES | Ki [1] [µM] | Kd [2] [µM]
O=C(CO)COP(=O)(O)O [DHAP, dihydroxyacetone phosphate] | 238 ± 20 | 
O=C(COP(=O)(O)O)NO [PGH, phosphoglycolohydroxamate] |  | 0.0211 ± 0.0002
